The text below walks through data of patent publication US20230091336A1, “CANNABINOID COMPOSITIONS” (priority 2020, published 2023).

Broadly, the IC50 is the concentration that inhibits the measured activity by half.

Test [1] deals with SOCE in HEK-293 human embryonic kidney cells. The experiment in a line: SOCE Fura-2 bioassay in HEK293 cells. The test is classed as cell-based. Particulars: for IC50: Homo sapiens, HEK293, read-out: IC50 SOCE, purified cannabinoids, HEK-293, Table 5.
The test system of test [2] is SOCE-mediated increases in intracellular Ca^2+. Put plainly: SOCE dose-response of CBGA (FIG. 15). It counts as cell-based. Particulars: read-out: IC50 inhibition of SOCE-mediated increases in intracellular Ca^2+. From the text:
(§1) Data from dose-response curves for the inhibition of TRPM7 currents (dark gray symbols) obtained in experiments shown in FIG. 14 and SOCE-mediated increases in intracellular Ca^2+ (light gray symbols) are shown in FIG. 15.

The target in test [3] is T1, TRPM7 (Homo sapiens, UniProt Q96QT4). The experiment in a line: Whole-cell patch clamp of TRPM7 over-expressed in HEK293 cells. It counts as cell-based. Set-up: expressed in transfected cells; host or cells: HEK293. The conditions noted are these: HEK293 over-expressing TRPM7. The protocol:
Activation of TRPM7 over-expressed in HEK293 cells by perfusing the cells with intracellular solution containing 0 ATP and 0 Mg^2+, resulting in fast and maximal activation of TRPM7 outward currents at +40 mV is shown in FIG. 14.
as §1
Target sequence in this assay (Q96QT4 whole entry, species assumed): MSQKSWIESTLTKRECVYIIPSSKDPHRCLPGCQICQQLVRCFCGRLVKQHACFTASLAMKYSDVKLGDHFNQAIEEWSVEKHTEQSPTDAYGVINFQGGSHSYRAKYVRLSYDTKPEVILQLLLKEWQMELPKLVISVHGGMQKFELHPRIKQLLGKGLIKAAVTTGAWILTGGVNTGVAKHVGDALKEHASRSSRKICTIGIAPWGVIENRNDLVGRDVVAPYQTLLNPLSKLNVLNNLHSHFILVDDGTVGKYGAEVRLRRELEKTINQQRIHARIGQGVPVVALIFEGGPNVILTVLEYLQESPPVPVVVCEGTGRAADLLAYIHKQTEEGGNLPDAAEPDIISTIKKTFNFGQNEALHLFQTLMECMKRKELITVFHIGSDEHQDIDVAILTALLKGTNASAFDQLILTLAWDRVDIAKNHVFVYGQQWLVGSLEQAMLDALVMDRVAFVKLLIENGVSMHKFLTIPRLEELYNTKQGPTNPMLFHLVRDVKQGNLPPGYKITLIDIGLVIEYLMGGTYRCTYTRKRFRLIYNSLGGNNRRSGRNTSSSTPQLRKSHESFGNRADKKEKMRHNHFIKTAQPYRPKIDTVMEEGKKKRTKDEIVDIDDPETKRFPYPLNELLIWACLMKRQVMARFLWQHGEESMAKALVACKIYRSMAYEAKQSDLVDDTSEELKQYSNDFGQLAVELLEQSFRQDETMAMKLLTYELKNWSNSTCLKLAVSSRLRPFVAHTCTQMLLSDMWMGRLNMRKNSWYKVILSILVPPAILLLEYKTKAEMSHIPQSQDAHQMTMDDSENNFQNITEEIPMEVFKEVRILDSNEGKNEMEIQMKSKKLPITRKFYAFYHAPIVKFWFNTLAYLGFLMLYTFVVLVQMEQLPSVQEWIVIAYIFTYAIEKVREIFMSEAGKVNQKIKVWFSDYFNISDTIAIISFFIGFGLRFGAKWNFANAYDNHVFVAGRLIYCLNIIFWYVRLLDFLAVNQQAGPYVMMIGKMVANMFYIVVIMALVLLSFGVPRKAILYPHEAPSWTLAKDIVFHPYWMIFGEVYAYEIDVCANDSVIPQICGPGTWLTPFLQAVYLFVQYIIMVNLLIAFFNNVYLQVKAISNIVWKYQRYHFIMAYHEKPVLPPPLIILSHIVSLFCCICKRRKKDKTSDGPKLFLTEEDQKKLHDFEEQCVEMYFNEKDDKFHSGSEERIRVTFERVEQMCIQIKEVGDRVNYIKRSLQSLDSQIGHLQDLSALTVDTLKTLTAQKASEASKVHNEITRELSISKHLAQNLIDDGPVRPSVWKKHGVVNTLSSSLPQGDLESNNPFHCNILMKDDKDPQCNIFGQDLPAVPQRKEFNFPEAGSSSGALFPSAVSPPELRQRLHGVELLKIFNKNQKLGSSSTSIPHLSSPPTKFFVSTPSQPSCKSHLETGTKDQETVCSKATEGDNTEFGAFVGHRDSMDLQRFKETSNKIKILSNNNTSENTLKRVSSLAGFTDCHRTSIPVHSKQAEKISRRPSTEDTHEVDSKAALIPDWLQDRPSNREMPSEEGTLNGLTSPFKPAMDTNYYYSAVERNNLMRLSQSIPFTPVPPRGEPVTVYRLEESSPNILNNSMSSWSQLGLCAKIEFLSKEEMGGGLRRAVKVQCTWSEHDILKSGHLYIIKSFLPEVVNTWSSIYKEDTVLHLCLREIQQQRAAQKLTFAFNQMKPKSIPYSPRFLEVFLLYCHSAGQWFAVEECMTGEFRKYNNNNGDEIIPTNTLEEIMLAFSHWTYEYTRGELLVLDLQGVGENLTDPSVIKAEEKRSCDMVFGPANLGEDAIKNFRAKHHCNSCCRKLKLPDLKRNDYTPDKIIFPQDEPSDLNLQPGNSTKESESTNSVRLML
A general note: The patch-clamp technique gives a direct electrical read-out from membranes.

For test [4], the target named is T1, TRPM7. The experiment in a line: Whole-cell patch clamp of TRPM7 outward current in Jurkat cells. Particulars: 10 μM. The test is classed as cell-based. Set-up: endogenous in cells; host or cells: Jurkat. The protocol:
(§2) Inward CRAC currents were induced at −120 mV (gray trace) and outward currents at +40 mV (black trace, where CRAC currents reverse and are essentially absent). At the +40 mV voltage potential, TRPM7 channels produce monovalent outward currents. Perfusion of 50 μM IP3 activates ICRAC at −120 mV as above and the removal of intracellular ATP slowly activates TRPM7 current at +40 mV. Application of 10 μM CBGA blocks both outward TRPM7 and inward CRAC currents (see FIG. 13, black and gray traces, respectively). Without being bound by theory, CBGA may also block TRPM7's kinase activity, similar to other TRPM7 blockers such as NS8593.
Target sequence in this assay (Q96QT4 whole entry): as the sequence (Q96QT4 whole entry, species assumed) above

In the next test the test system is CRAC channels (ICRAC). The experiment in a line: Whole-cell patch clamp of IP3-induced ICRAC in Jurkat cells. Particulars: 10 μM, 50 μM IP3. The test is classed as cell-based, human. As for the experimental part:
The ability of CBGA to inhibit store-operated calcium entry (SOCE) within cells was experimentally interrogated (see FIG. 12). Jurkat cells were perfused with 50 μM IP3 to induce store depletion and activation of CRAC channels (the resulting Ca^2+ inward current is known as ICRAC). ICRAC is a long-lasting inward current at −120 mV membrane potential (black trace) that can be blocked by 10 μM CBGA (gray trace).
as §2

The next test deals with UUO mice. Put plainly: Unilateral Ureteral Obstruction (UUO) mouse model of kidney fibrosis. The test is classed as in vivo. Particulars: for interstitial area increase in UUO kidneys: FIG. 19D; for macrophage infiltration in UUO kidneys (F4/80): FIG. 20B; for α-SMA production in UUO kidneys vs vehicle (immunostaining): FIG. 24B; for urine / water intake / body weight / kidney weight CLK / kidney weight UUO: UUO mice at day 7; for urine / water intake / kidney weight CLK / kidney weight UUO: 10 mg/kg i.p. daily; for body weight: 10 mg/kg i.p. daily day 0 to day 6, n = 5; for magnesium output in urine vs vehicle: 24 h urine, FIG. 18; for kidney weight CLK: contralateral kidney; for phosphorylated Smad3 protein in UUO kidneys (Western blotting) / α-SMA protein in UUO kidneys (Western blotting): cortical kidney tissue, FIG. 23; for collagen type I production in UUO kidneys vs vehicle / fibronectin production in UUO kidneys vs vehicle: immunostaining; for collagen type I production in UUO kidneys vs vehicle: FIG. 21B; for fibronectin production in UUO kidneys vs vehicle: FIG. 22B; for tubular dilation in UUO kidneys: number of dilated tubules per field, FIG. 19B; for kidney weight UUO: obstructed kidney; for tubule loss in UUO kidneys: total number of renal tubules per field, FIG. 19C. From the text: The Unilateral Ureteral Obstruction (UUO) model is a mouse model of kidney disease that is associated with and characterized by progressive tubulointerstitial injury and fibrosis. This model can be used to identify many of the molecular and cellular events that occur in progressive kidney fibrosis. […] TRPM7 represents a promising therapeutic target in kidney fibrosis and TRPM7 inhibitors may act as anti-fibrotic pharmacological tools.
C57BL/6 male mice (6 wks weighing 20-25 g) were used in the UUO model. Under isoflurane (3.0% for induction and 1.5% for maintenance) anesthesia, ureteral obstruction was achieved by ligating the left ureter with a 3-0 silk suture through a left lateral incision. Control and experimental groups for these experiments were created as follows:
Group 1: Control (5 mL/kg body weight) 5% ethanol and 5% Tween80 in 0.9% NaCl
Group 2: CBGA (10 mg/kg body weight) 2 mg/mL in 5% ethanol, 5% Tween80 and 0.9% NaCl
Group 3: CBD (10 mg/kg body weight) 2 mg/mL in 5% ethanol, 5% Tween80 and 0.9% NaCl
Group 4: CBGA (10 mg/kg body weight)+CBD (10 mg/kg body weight), 2 mg/mL each in 5% ethanol, 5% Tween80 and 0.9% NaCl
Mice were injected once daily with 10 mg/kg cannabinoids (CBGA, CBD, or both) as well as vehicle control daily beginning immediately after surgery and until Day 6. Mice were euthanized at Day 7 after surgery. Obstructed kidneys (UUO) and non-obstructed contralateral kidneys (CLK) were collected and stored.
FIGS. 19A-19D depict the protection of kidney structure following cannabinoid treatment, as observed during experiments.
Immunohistochemical analysis. To evaluate renal fibrosis in UUO kidneys, immunoreactivities of F4/80 (macrophage marker), collagen type I, fibronectin, and α-smooth muscle actin (α-SMA) were determined using a standard biotin-streptavidin-peroxidase method. The staining-positive areas were calculated by Image J. The threshold was set to automatically compute the positive areas for each staining and the ratio of the positive areas to the whole interstitial area. Number of macrophages (FIG. 20A and FIG. 20B), collagen type I production in stained kidney tissue (FIG. 21A and FIG. 21B), and fibronectin production in stained kidney tissue (FIG. 22A and FIG. 22B) were quantified in UUO kidneys, showing that extracellular matrix production and/or deposition in kidney tissue were also affected with CBGA treatment.
For orientation: In western blotting, separated proteins are transferred to a membrane and probed.

“Also recorded” adds a separate entry of the source.

`CCCCCc1cc(O)c(C/C=C(\C)CCC=C(C)C)c(O)c1C(=O)O` [CBGA, (E)-3-(3,7-dimethylocta-2,6-dien-1-yl)-2,4-dihydroxy-6-pentylbenzoic acid]: in test [1] (10 μM, HEK293 (FIG. 8) vs immune cells), the “inhibitory effect in immune cells compared with non-immune HEK293 cells” value was “more potent”. For the same compound, the IC50 in test [1] came out at 3.6 µM. Besides, in test [2], the IC50 was approximately 2 µM. Also, the “block of TRPM7 current at +40 mV” value at TRPM7 [3] (1, 3, 10 or 30 μM, 0 ATP, 0 Mg^2+) is recorded as “dose-dependent block”. At TRPM7 [3] (FIG. 15, read-out: IC50 inhibition of TRPM7 currents), the half-inhibitory concentration (IC50) was approximately 3 µM. Further, the “block of outward TRPM7 current at +40 mV” value at TRPM7 [4] is “blocks”. The “block of inward calcium current ICRAC at −120 mV” value in the test with CRAC channels (ICRAC) is “completely blocks”. Further, in the test with UUO mice, the “interstitial area increase in UUO kidneys” value is on record as “inhibited increases in interstitial area”, the “macrophage infiltration in UUO kidneys (F4/80)” value is “inhibited macrophage infiltration”, the “α-SMA production in UUO kidneys vs vehicle (immunostaining)” value is listed as “inhibited” and the urine is listed as 1.88 ± 0.17 mL. Further, in the test with UUO mice, the water intake was found to be 4.7 ± 0.2 mL, the body weight came out at 21.55 ± 0.60 g, the “kidney weight CLK” value was determined as 167 ± 0.7 mg and the “phosphorylated Smad3 protein in UUO kidneys (Western blotting)” value is listed as “suppressed”. In the test on UUO mice, the “α-SMA protein in UUO kidneys (Western blotting)” value is reported as “suppressed”, the “collagen type I production in UUO kidneys vs vehicle” value is recorded as “inhibited”, the “fibronectin production in UUO kidneys vs vehicle” value is “inhibited” and the “tubular dilation in UUO kidneys” value is recorded as “inhibited tubular dilation”. In addition, in the test on UUO mice, the “kidney weight UUO” value was 163 ± 0.9^ mg and the “tubule loss in UUO kidneys” value is reported as “inhibited tubule loss”. Further, in the test with UUO mice (UUO mice day 7, 10 mg/kg daily, FIG. 17B, 10 mg/kg), the “kidney atrophy / loss of UUO kidney weight vs vehicle” value was “less kidney atrophy; also recorded: ameliorated the loss of kidney weight”. Moreover, in the test on UUO mice (UUO mice day 7), the “magnesium output in urine vs vehicle” value was “recovered”. Further, in the test with UUO mice (UUO mice, 10 mg/kg daily, FIG. 16), the “recovery of body weight loss vs vehicle” value is “faster recovery of body weight loss”.

Consider `C=C(C)[C@@H]1CCC(C)=C[C@H]1c1c(O)cc(CCCCC)cc1O` [CBD, (1′R,2′R)-5′-methyl-4-penlyl-2′-(prop-1-en-2-yl)-1′,2′,3′,4′-tetrahydro-[1,1′-biphenyl]-2,6-diol], for which, in test [1], the IC50 is more than 50 µM. Moreover, in the test on UUO mice, the “interstitial area increase in UUO kidneys” value is recorded as “inhibited interstitial area increase”, the “macrophage infiltration in UUO kidneys (F4/80)” value is “strongly inhibited macrophage infiltration”, the “α-SMA production in UUO kidneys vs vehicle (immunostaining)” value was “inhibited” and the urine is given as 2.01 ± 0.44 mL. In the test with UUO mice, the water intake stood at 4.9 ± 0.4 mL, the body weight is on record as 22.08 ± 0.45 g, the “kidney weight CLK” value stood at 175 ± 0.7 mg and the “phosphorylated Smad3 protein in UUO kidneys (Western blotting)” value is recorded as “suppressed”. For the same compound, in the test with UUO mice, the “α-SMA protein in UUO kidneys (Western blotting)” value is “suppressed”, the “collagen type I production in UUO kidneys vs vehicle” value is listed as “inhibit”, the “fibronectin production in UUO kidneys vs vehicle” value is “inhibit” and the “tubular dilation in UUO kidneys” value was “inhibited tubular dilation”. In the test with UUO mice, the “kidney weight UUO” value is given as 172 ± 0.8^ mg and the “tubule loss in UUO kidneys” value was “inhibited tubule loss”. The “magnesium output in urine vs vehicle” value in the test with UUO mice (UUO mice day 7) is “recovered”.
